Calls of active or inactive are those of the source.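 The calls were made as follows: active = compounds whose IC50 against parasite growth in infected mouse cells is below 50000 nM; inactive = the rest.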
System: T. cruzi Tulahuen in NIH-3T3, beta-gal fluorescence, 4 d
Experiment: anti-Chagas amastigote proliferation inhibitors – cell-based (AID 1159559)

Row | Structure (SMILES) | IC50
1 | CC(C)(C)CC(=O)NCc1noc(COc2ccccc2)n1 | 2500 nM
2 | NC(=O)c1ccc(-c2cccc(OCCN3CCN(C4CCCCC4)CC3)c2)cc1 | 1600 nM
3 | COc1cnc2ccc(=O)n(CCN3CCC(NC/C=C/c4cc(F)ccc4F)CC3)c2c1 | 16 nM
4 | CC(=O)Nc1ccc(Nc2nccc(-c3cnn4ncccc34)n2)cc1C(F)(F)F | 50 nM
5 | COc1ccccc1C1CC(c2ccc(NS(C)(=O)=O)cc2)=NN1C(=O)c1cccs1 (stereo not given) | 25000 nM
6 | Cc1cnc(Nc2cc(Cc3ccccc3)nc(NC3CCC(O)CC3)n2)s1 (stereo not given) | 130 nM
7 | O=C(CN1CCN(S(=O)(=O)c2cccc([N+](=O)[O-])c2)CC1)Nc1ccc(Oc2ccccc2)cc1 | 2500 nM
8 | Cc1nn(-c2nc(N)nc(-c3ccccn3)n2)c(C)c1Cc1ccccc1 | 2500 nM
9 | COc1ccc(CNc2cc(C3CC3)nc(-c3nccn3C)n2)cc1 | 1000 nM
10 | O=S(=O)(NCC(c1cccnc1)N1CCN(c2ccccc2F)CC1)c1ccc(F)cc1 (stereo not given) | 500 nM
11 | CNc1nc(C)nc(N2CCc3cc(C(=O)NCc4ccc(-c5nccn5C)cc4Cl)ccc32)n1 | 5000 nM
12 | CS(=O)(=O)N1CCC(Nc2ncc(Br)c(Nc3cccc(F)c3C(N)=O)n2)CC1 | 320 nM
13 | CC(C)C[C@H](NC(=O)c1csc(-c2cccs2)n1)C(=O)NC1(C#N)CC1 | 25000 nM
14 | O=C(O)[C@H]1C[C@@H]1c1ccc(-c2ccc(CN(CCc3ccccn3)C(=O)C3CCC3)cc2)cc1 | > 50000 nM (inactive)
15 | O=C(CN1CCN(c2ccccn2)CC1)Nc1cc(S(=O)(=O)N2CCCCCC2)ccc1Cl | 10000 nM
16 | O=C(NCc1ccc(Cl)cc1)C1CN(C(=O)c2ccc(F)cc2)CCS1 (stereo not given) | 25000 nM
17 | Cc1ccc(S(C)(=O)=O)cc1Nc1nccc(-c2sc(N)nc2-c2ccccc2)n1 | 130 nM
18 | O=C(Nc1ccccc1)Nc1nc(-c2ccccn2)cs1 | 630 nM
19 | CN(C(=O)Nc1ccc2c(c1)CCN(C1CCC1)CC2)c1ccc(C#N)cc1 | 2000 nM
20 | CC(C(=O)Nc1ccc(Br)cc1)N1CCN(c2ccc([N+](=O)[O-])cc2)CC1 (stereo not given) | 2500 nM
21 | CCc1nn(-c2ncc(F)c(NC(C)C)n2)c(N)c1C1CCCCC1 | 3200 nM
22 | NC(=O)c1ncccc1Nc1nc(NC2CCC(O)CC2)ncc1Br (stereo not given) | 1600 nM

Row | Structure (SMILES) | IC50
23 | CCOc1ccc(N(C)S(=O)(=O)c2ccc3[nH]cc(C(=O)NC4CCCC4)c(=O)c3c2)cc1 | 7900 nM
24 | Cc1cc2cncn2c(C2CCCCN2C(=O)c2cccs2)n1 (stereo not given) | 25 nM
25 | CC(C)c1cc(Nc2cc(Cc3ccccc3)nc(NC3CCC(O)CC3)n2)n[nH]1 (stereo not given) | 79 nM
26 | Cn1c(CN2CCN(c3ncc(C(F)(F)F)cc3Cl)CC2)nc2ccncc21 | 790 nM
27 | COc1ccc(OC)c2c(=O)c(Cc3ccccc3)c(C)[nH]c12 | 200 nM
28 | COc1ccc([N+](=O)[O-])cc1NC(=O)c1cc(Cl)ccc1O | 32000 nM
29 | O=C(NCCc1csc(-c2ccc(F)cc2)n1)c1cccs1 | 400 nM
30 | CNc1cncc(C2CCCN2C(=O)Cc2coc3cc(C)ccc23)n1 (stereo not given) | 160 nM
31 | COc1ncc(-c2ccc3nccc(-c4ccncc4)c3c2)cc1NS(C)(=O)=O | 1600 nM
32 | Cc1cccc(NS(=O)(=O)c2ccc3c(c2)C(=O)c2cc(S(=O)(=O)Nc4cccc(C)c4C)ccc2-3)c1C | 400 nM
33 | CC(=O)Nc1ccc(-c2csc(NC(=O)c3ccc([N+](=O)[O-])s3)n2)cc1 | 130 nM
34 | CC(C)(C)C(=O)NCCc1csc(-c2ccc(F)cc2)n1 | 3200 nM
35 | CCN(Cc1cccs1)C(=O)CSc1nnc(-c2ccc3c(c2)OCO3)o1 | 4000 nM
36 | CCC(c1ccc(F)cc1)n1cncc1-c1cnn(C)c1 (stereo not given) | 200 nM
37 | CS(=O)(=O)c1cccc(-c2cnc(N)c3c(-c4ccc(CO)cc4)csc23)c1 | 790 nM
38 | O=C(Cc1ccccc1)Nc1ccccc1C(=O)Nc1nccs1 | 40000 nM
39 | Cc1ccc(C)c(CN2C(=O)NC3(CCc4ccccc43)C2=O)c1 (stereo not given) | 25000 nM
40 | COc1ccc(CNc2nsc3ccccc23)cc1OC | 6300 nM
41 | COc1ccc2ncc(=O)n(CCN3CCC(NCc4ccc(-c5cccs5)cc4)CC3)c2n1 | 2000 nM
42 | C[C@@H](Oc1cc(-n2cnc3cc(N)ccc32)sc1C(N)=O)c1ccccc1Cl | 1300 nM
43 | O=C(NCCc1nc(-c2ccc(F)c(F)c2)n[nH]1)C1CCCCC1 | 2000 nM
44 | O=C(NCC(c1cccs1)N1CCOCC1)c1ccc([N+](=O)[O-])o1 (stereo not given) | 3200 nM

Row | Structure (SMILES) | IC50
45 | Clc1ccc(Sc2cnccc2N2CCOCC2)cc1 | 130 nM
46 | O=c1ccc2ccc(F)c3c2n1C[C@H]3CN1CCC(NCc2cc3ccccc3o2)CC1 | 400 nM
47 | COc1ccc(C(C)N(C)c2ncc3c(N)nc(N)nc3n2)cc1F (stereo not given) | 79 nM
48 | COc1cccc2sc(CN(C)C(=O)C3CNCCN3c3ccc(F)cc3)c(C)c12 (stereo not given) | 400 nM
49 | Cn1nc(C(=O)N2CCc3ccccc32)c2c1CCS(=O)(=O)C2 | 7900 nM
50 | Cc1cc2cc(CNc3ccc4c(c3)OCO4)c(=O)n(CCO)c2cc1C | 630 nM
51 | CCOc1ccc(CN(C)Cc2nc(N)nc(Nc3ccc(C)cc3)n2)cc1 | 6300 nM
52 | CCCc1cc(N)nc(-c2cc(CCC)cc(N)n2)c1 | 2000 nM
53 | CCn1c(-c2nonc2N)nc2c([C@@H](C)O)ncc(O[C@H](CN)c3ccccc3)c21 | 7900 nM
54 | CC1CCCCN1C(=O)NCCc1coc(-c2ccc(F)cc2)n1 (stereo not given) | 400 nM
55 | O=C(NCCNc1noc(-c2ccc([N+](=O)[O-])cc2)n1)c1ccc(Cl)cc1 | 2000 nM
56 | N#Cc1cccc(CNc2ccc(-c3cnn(CC4CC4)c(=O)c3C#N)cc2)c1 | 5000 nM
57 | CC(c1cc(Cl)cc(Cl)c1)N(C)c1ncc2c(N)nc(N)nc2n1 (stereo not given) | 63 nM
58 | Cc1ccc(S(=O)(=O)Cn2nnnc2C(c2cccnc2)N2CCN(c3ccccc3)CC2)cc1 (stereo not given) | 500 nM
59 | OCC1CCCCN1c1cc(-c2ccccn2)nc(Nc2ccccc2)n1 (stereo not given) | 790 nM
60 | Clc1cc(Br)ccc1OCCCCn1ccnc1 | 630 nM
61 | COc1ccc(-c2cc(C)no2)cc1S(=O)(=O)Nc1ccc(F)c(Cl)c1 | 1600 nM
62 | Cc1cc(=O)n2nc(Oc3ccc(C#N)cc3Cl)sc2n1 | 16000 nM
63 | Cc1sc(C)c(C(F)(F)F)c1CNCCCNc1cc(=O)c2ccccc2[nH]1 | 790 nM
64 | Cc1cccnc1NC(=O)c1cccc(OCc2c(C)noc2C)c1 | > 50000 nM (inactive)
65 | O=C1CCCCCC1(Cc1cnc[nH]1)c1ccc(Cl)cc1Cl (stereo not given) | 250 nM
66 | COc1ccc2ncc(Cl)c(CCN3CC[C@H](NCc4cc5c(cn4)OCS5)[C@@H](O)C3)c2n1 | 130 nM

Row | Structure (SMILES) | IC50
67 | CC(CNS(=O)(=O)c1ccc(OC(F)F)cc1)c1ccc(NC(=O)c2ccncc2)cc1 (stereo not given) | 200 nM
68 | CCC(=O)Nc1ccc(C(=O)Nc2ccccc2-c2ccccc2)cc1 | 500 nM
69 | CCS(=O)(=O)c1cccc(C(=O)Nc2nc(-c3ccccn3)cs2)c1 | 1600 nM
70 | O=C(NCCc1ccccn1)C(c1cn[nH]c1)N1CCN(c2ccc(Cl)c(Cl)c2)CC1 (stereo not given) | 100 nM
71 | Cc1nnnn1-c1cccc(C(=O)N2CCC[C@@]3(C)c4ncncc4CCC23)c1 (stereo not given in full) | 630 nM
72 | CC(Cn1ccnc1)NC(=O)C1CC1c1cccc(Cl)c1Cl (stereo not given) | 130 nM
73 | COc1ccc(C(=O)Nc2ccc(NC(=O)CO)cc2)cc1 | > 50000 nM (inactive)
74 | CS(=O)(=O)c1ccc(Nc2nccc(Nc3n[nH]c4ccc(F)cc34)n2)c(F)c1 | 7900 nM
75 | O=C(Nc1ccc(S(=O)(=O)N2CCCC2)cc1)c1ccc([N+](=O)[O-])s1 | 200 nM
76 | COc1ccccc1-c1c(C)[nH]c2nc(N)nc(C)c12 | 160 nM
77 | CCn1c(NC(=O)Cc2ccc(F)cc2)nc2ccccc21 | 5000 nM
78 | O=C(NCCc1csc(-c2cccc(F)c2)n1)c1ccco1 | 1600 nM
79 | Cc1occc1C(=O)Nc1ccccc1C(=O)Nc1nccs1 | > 50000 nM (inactive)
80 | Oc1c(-c2n[nH]c(CCc3ccccc3)n2)ncc2cccnc12 | 200 nM
81 | CN(C)c1ncc(-c2cncn2CCOc2ccc(Cl)cc2)cn1 | 200 nM
82 | COc1ccc2nccc([C@H](O)CN3CC[C@H](NC(=O)c4ccc(Br)cc4)[C@@H](O)C3)c2n1 | 250 nM
83 | O=C(c1cccc(Nc2ncc(-c3ccc4c(c3)OCO4)cn2)c1)N1CCSC1 | 2500 nM
84 | CN(Cc1ccc(F)cc1)c1ccc(OCC(=O)N2CCCCC2c2cccnc2)nn1 (stereo not given) | 320 nM
85 | O=C(CSc1ccc(F)cc1)N[C@@H](Cc1cnc[nH]1)C(=O)NCCc1ccccc1 | 400 nM
86 | O=c1[nH]c(C=Cc2cccc(OCCOc3ccccc3)c2)nc(O)c1[N+](=O)[O-] | 790 nM
87 | CCCCCNC(=O)c1c[nH]c2ccc(S(=O)(=O)N(C)c3ccc(OCC)cc3)cc2c1=O | 32000 nM
88 | CCOc1ccc(CC(=O)N2c3ccccc3CC2C(=O)NC)cc1 (stereo not given) | > 50000 nM (inactive)

Row | Structure (SMILES) | IC50
89 | Cc1cccc(Nc2nc(-c3ccccn3)cs2)n1 | 630 nM
90 | CC(C)(C)Nc1nc(Nc2ccc3c(c2)CS(=O)(=O)C3)nc2[nH]ccc12 | 1000 nM
91 | COc1ccc(C2=NCC(CSc3nnc(-c4ccc5c(c4)OCO5)o3)S2)cc1 (stereo not given) | 2500 nM
92 | O=C(CCCn1cnc([N+](=O)[O-])n1)Nc1cccc(Cl)c1 | 200 nM
93 | CC(=O)Nc1nc(-c2cc(C)ccc2C)c(C)s1 | 200 nM
94 | COc1cc(-c2noc(CC#N)n2)ccc1OC(F)F | 40000 nM
95 | NS(=O)(=O)c1ccc(Nc2ncc3cccc(OC4CCNCC4)c3n2)cc1 | 1600 nM
96 | N#Cc1ccc(S(=O)(=O)N2CCN(Cc3cccc(-c4ccncc4)c3)CC2)cc1 | 400 nM
97 | O=S1N=C(NCCCN(Cc2ccc(F)cc2)c2ccccn2)C(NCc2ccncc2)=N1 (stereo not given) | 32000 nM
98 | NCc1csc(Nc2cc(Oc3ccccc3)ncn2)n1 | 32000 nM
99 | CCCCn1nnnc1CSc1nc(C)cc(C)c1C#N | 320 nM
100 | O=C(Nc1ccc(Br)cn1)c1ccc(Cn2cnc([N+](=O)[O-])n2)cc1 | 160 nM
101 | O=C(CSc1ccc(-c2ccccn2)nn1)Nc1ccc(Cl)cc1 | 2500 nM
102 | NS(=O)(=O)c1ccc(Nc2nccc(-c3cnn4ncccc34)n2)cc1 | 2500 nM
103 | CNC(=O)C1Cc2ccccc2N1C(=O)COc1cccc(OC)c1 (stereo not given) | > 50000 nM (inactive)
104 | O=C(CC1(O)C(=O)N(Cc2cccs2)c2ccc(Br)cc21)c1cccnc1 (stereo not given) | 5000 nM
105 | CNC(=O)Oc1ccc(C(=O)NCc2ccccc2)cc1OC(=O)NC | 32000 nM
106 | CC(C)c1sc(Cl)nc1C(=O)NCCc1nc(C(=O)Nc2ccc3c(c2)OCO3)cs1 | 4000 nM
107 | c1ccc(CNc2cccc3ccncc23)cc1 | 6300 nM
108 | CC(C)N(C(=O)CN1C(=O)C(N)C(=O)N(c2ccccc2)c2ccccc21)c1ccccc1 (stereo not given) | 320 nM
109 | CCN(CC)c1ccc(S(=O)(=O)N(CC)CC)c2nonc12 | 25000 nM
110 | COc1ccc(CN2CCCCC2c2nc(-c3cccnc3)no2)cc1 (stereo not given) | 790 nM
